The results in this text go back to publication PMC5853648 (Biochemistry, 2017).

In experiment [1] the target is T1, CidC (Staphylococcus aureus, UniProt Q6PST7).
T1 sequence (Q6PST7 2-579): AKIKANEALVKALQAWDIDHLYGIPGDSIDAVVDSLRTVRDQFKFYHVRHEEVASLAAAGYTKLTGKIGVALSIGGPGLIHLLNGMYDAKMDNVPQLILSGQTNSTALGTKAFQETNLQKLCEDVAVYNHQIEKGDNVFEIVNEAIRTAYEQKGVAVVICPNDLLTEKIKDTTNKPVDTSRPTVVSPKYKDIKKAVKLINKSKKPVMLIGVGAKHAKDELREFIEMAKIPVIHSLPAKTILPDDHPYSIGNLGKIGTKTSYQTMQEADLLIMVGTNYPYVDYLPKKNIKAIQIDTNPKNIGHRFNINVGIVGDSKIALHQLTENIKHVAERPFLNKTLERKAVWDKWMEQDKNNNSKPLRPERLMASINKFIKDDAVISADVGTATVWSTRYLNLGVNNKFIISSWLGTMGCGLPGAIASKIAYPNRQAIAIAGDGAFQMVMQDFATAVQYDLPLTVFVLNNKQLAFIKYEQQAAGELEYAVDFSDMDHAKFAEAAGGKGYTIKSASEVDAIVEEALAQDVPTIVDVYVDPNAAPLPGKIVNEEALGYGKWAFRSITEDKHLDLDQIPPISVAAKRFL
Nature of the experiment: tryptophan fluorescence quenching titration. In kind it is binding.

For experiment [2], the target named is T1, CidC. Nature of the experiment: ferricyanide reduction assay, absorbance […] nm. It counts as biochemical.

A word on the Kd: it is a measure of binding affinity in units of concentration. `Cc1ncc(C[n+]2csc(CCO[P@](=O)(O)OP(=O)(O)O)c2C)c(N)n1` [TPP] had a Kd on CidC [1] of 0.0003 mM. In other words, the sub-micromolar range.
As a reminder, the IC50 is the concentration that gives 50% inhibition. `O=C(O)CC(O)(CC(=O)O)C(=O)O` [citrate]: the IC50 against CidC [2] was determined as 10 mM. That is a millimolar value.
